Data on two compounds can be found in patent US9878986B2, “Compounds for selective histone deacetylase inhibitors, and pharmaceutical composition comprising the same” (CHONG KUN DANG PHARMACEUTICAL CORP., priority 2013, dated 2018).

SMILES strings stand for the structures.

One assay has as its target T1, HDAC 2 (Homo sapiens, UniProt Q92769).
T1 construct: Reaction Biology Corp
The experiment in a line: HDAC panel by Reaction Biology Corp., HDAC 2. Particulars: read-out: HDAC inhibitory activities, HDAC 2. The class given is biochemical. An excerpt:
(§1) The inhibitory activities of Compounds 255 and 374 on all HDACs were confirmed (by Reaction Biology Corp.).

In a further assay the target is T2, HDAC 3 (Homo sapiens, UniProt O15379).
T2 construct: Reaction Biology Corp
Briefly: HDAC panel by Reaction Biology Corp., HDAC 3. It counts as biochemical. Particulars: read-out: HDAC inhibitory activities, HDAC 3.
Excerpt: as §1

In the next assay the target is T3, HDAC 4 (Homo sapiens, UniProt P56524).
T3 construct: Reaction Biology Corp
Briefly: HDAC panel by Reaction Biology Corp., HDAC 4. The class given is biochemical. The conditions noted are these: read-out: HDAC inhibitory activities, HDAC 4.
Excerpt: as §1

The next assay concerns the target T4, HDAC 8 (Homo sapiens, UniProt Q9BY41).
T4 construct: Reaction Biology Corp
T4 sequence (Q9BY41 1-377): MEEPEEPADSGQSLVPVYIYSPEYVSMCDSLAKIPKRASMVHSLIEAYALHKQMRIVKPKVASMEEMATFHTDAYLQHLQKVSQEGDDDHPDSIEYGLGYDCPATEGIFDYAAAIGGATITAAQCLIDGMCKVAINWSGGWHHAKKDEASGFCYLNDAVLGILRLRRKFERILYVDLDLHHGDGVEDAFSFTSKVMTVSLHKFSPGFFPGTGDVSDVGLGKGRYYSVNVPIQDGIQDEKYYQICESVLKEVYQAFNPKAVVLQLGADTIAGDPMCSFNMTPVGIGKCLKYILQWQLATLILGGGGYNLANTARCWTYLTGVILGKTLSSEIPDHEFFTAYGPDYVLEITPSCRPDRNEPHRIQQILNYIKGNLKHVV
The experiment in a line: HDAC panel by Reaction Biology Corp., HDAC 8. It counts as biochemical. Particulars: read-out: HDAC inhibitory activities, HDAC 8.
Excerpt: as §1

Another assay deals with T5, HDAC 10 (Homo sapiens, UniProt Q969S8).
T5 construct: Reaction Biology Corp
T5 sequence (Q969S8 1-669): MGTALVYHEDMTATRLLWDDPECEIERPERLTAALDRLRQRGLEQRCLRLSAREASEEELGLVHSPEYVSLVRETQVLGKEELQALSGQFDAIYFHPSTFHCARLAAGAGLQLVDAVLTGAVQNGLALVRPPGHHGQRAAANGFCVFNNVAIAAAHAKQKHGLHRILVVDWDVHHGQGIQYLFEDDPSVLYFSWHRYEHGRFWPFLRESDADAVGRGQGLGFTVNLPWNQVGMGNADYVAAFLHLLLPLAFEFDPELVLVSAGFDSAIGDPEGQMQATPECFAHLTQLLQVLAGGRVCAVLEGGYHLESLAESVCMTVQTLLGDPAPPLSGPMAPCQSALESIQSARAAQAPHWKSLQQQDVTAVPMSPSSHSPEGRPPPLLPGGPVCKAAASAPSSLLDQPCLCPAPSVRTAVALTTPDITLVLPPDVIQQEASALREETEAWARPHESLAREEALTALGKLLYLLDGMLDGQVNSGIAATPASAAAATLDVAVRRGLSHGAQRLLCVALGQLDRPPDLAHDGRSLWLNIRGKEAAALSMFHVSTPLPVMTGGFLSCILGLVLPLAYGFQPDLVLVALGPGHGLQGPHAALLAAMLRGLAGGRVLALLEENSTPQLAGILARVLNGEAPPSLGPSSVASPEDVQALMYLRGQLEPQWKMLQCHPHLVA
The experiment in a line: HDAC panel by Reaction Biology Corp., HDAC 10. The class given is biochemical. The conditions noted are these: read-out: HDAC inhibitory activities, HDAC 10.
Excerpt: as §1

The next assay has as its target T6, HDAC 11 (Homo sapiens, UniProt Q96DB2).
T6 construct: Reaction Biology Corp
T6 sequence (Q96DB2 1-347): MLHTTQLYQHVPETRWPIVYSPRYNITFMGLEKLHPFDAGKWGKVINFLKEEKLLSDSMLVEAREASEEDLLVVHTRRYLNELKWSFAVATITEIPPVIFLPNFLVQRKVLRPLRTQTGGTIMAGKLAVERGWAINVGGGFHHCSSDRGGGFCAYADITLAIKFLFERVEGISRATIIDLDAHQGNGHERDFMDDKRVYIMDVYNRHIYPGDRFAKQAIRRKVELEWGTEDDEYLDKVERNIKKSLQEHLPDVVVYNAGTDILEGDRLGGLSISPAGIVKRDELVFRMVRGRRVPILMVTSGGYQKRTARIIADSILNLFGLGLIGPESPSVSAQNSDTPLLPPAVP
Briefly: HDAC panel by Reaction Biology Corp., HDAC 11. It counts as biochemical. The conditions noted are these: read-out: HDAC inhibitory activities, HDAC 11.
Excerpt: as §1

For assay [1], the system named is adjuvant-induced arthritis models. The experiment in a line: Adjuvant-induced arthritis models. The conditions noted are these: for clinical score: intraperitoneally, score 0 to 16; for arthritis symptoms improved by: 3, 10 and 30 mg/kg twice a day, versus vehicle group; for efficacy compared with the control compound Tofacitinib: clinical score. The class given is in vivo, Lewis rat. The protocol: Complete Freund's Adjuvant (Chondrex) containing 10 mg/mL Heat killed mycobacteria toxin was sufficiently mixed, and then 100 μL was taken and intradermally injected into the upper part of the tail of Lewis rat to induce arthritis. After 10 days, the length of the ankle circumference of rats was measured, and then the rats were grouped and used in the experiment. Each compound was intraperitoneally injected twice a day. The clinical score, the length of the ankle circumference, and the weight were measured twice a week after the administration of the compounds. The clinical scores were assigned from 0 to 4 based on the thesis of Woods, etc. (J. Immunology, 1214-1222, 2001), and the total clinical score was determined by evaluating the feet of each rat and summing up the scores (normal: 0, most severe edema: 16). The length of the ankle circumference was calculated based on the formula of 2×3.14(√(a^2+b^2/2)) after measuring top-bottom sides (a) of the foot and lateral sides (b) of the foot. The final value was determined by averaging the calculated values of each foot.

The target of another assay is HDAC1 (Homo sapiens, UniProt Q13547). The experiment in a line: HDAC panel by Reaction Biology Corp., HDAC 1. The class given is biochemical. The arrangement: Reaction Biology Corp. Particulars: Table 15, Reaction Biology Corp.; read-out: HDAC1 inhibitory activity.
Excerpt: as §1

T1 sequence (Q92769 whole entry): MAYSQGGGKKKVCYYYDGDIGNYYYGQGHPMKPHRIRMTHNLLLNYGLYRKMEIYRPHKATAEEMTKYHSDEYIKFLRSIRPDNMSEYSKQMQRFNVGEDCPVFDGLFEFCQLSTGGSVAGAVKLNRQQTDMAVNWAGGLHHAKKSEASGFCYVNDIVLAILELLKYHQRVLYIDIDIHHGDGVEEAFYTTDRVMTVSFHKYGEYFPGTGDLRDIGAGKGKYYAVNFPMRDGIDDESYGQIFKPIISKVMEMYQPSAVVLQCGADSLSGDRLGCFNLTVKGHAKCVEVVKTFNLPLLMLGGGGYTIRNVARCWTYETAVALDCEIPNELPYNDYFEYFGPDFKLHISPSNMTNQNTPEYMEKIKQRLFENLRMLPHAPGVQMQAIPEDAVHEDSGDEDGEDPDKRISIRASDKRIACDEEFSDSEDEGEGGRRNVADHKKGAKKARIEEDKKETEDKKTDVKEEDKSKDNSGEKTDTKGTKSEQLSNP
T2 sequence (O15379 whole entry): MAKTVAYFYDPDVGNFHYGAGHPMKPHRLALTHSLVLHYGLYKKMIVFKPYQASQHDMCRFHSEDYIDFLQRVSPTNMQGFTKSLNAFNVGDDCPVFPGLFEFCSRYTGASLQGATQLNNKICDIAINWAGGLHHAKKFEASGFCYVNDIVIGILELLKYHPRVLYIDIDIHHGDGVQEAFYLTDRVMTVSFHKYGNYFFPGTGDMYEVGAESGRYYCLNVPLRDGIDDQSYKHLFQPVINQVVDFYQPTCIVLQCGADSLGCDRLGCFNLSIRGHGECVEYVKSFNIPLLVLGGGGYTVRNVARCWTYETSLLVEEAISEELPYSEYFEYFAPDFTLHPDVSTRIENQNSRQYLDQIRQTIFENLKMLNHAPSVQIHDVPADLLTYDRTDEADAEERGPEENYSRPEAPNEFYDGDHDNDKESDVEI
T2 sequence (Q9Y618 395-489 partner limits assumed): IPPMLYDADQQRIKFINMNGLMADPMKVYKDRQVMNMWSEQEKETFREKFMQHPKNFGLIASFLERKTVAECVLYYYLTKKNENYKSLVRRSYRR
HDAC1, sequence (Q13547 whole entry): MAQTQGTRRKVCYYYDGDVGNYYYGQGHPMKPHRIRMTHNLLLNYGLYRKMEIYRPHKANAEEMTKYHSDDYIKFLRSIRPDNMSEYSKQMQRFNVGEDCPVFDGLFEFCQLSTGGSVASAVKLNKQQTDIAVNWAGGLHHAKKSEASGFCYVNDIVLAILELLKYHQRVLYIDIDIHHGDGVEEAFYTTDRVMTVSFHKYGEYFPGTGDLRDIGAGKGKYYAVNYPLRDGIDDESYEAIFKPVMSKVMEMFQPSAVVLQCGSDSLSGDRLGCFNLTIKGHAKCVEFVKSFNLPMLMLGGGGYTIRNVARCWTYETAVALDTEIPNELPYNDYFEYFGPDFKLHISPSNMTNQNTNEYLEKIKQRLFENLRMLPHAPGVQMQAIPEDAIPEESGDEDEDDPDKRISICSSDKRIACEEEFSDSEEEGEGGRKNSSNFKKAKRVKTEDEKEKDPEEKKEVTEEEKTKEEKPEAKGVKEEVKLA
T3 sequence (P56524 whole entry): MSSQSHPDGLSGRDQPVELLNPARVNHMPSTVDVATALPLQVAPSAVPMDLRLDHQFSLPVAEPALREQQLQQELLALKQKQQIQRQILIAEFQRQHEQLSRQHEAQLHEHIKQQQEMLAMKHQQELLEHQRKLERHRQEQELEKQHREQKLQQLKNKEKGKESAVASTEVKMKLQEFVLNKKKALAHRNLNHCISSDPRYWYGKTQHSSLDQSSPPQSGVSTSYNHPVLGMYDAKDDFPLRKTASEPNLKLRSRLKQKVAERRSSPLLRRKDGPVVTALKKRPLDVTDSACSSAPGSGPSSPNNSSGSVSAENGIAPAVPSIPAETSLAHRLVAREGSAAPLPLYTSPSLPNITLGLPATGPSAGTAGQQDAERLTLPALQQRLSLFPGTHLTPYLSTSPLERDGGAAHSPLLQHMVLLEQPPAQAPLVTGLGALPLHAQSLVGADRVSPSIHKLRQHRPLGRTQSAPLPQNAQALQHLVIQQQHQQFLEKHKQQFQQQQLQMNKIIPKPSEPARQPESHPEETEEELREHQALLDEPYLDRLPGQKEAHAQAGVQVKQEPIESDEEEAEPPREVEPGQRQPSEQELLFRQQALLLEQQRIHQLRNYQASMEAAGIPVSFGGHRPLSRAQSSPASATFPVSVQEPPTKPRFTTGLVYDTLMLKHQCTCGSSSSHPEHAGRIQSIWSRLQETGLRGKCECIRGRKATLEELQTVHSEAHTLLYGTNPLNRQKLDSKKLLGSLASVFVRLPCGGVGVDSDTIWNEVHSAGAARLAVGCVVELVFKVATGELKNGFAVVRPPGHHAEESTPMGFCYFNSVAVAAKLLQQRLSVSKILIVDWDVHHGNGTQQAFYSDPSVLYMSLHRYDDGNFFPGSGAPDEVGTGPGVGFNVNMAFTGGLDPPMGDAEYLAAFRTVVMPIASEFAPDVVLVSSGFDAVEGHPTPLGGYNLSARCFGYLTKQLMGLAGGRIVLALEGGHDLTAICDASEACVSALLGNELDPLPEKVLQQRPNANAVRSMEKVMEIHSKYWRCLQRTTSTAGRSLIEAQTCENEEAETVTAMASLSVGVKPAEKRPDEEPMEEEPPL

In the case of `O=C(NO)c1ccc(CN(C(=O)N2CCOCC2)c2cccc(Br)c2)cc1` [Compound 255, N-(3-bromophenyl)-N-(4-(hydroxycarbamoyl)benzyl)morpholine-4-carboxamide], the IC50 on HDAC 2 is 690 nM; at HDAC 3 it was 1630 nM; at HDAC 4, 6860 nM; on HDAC 8, 650 nM; at HDAC 10, 1470 nM; at HDAC 11, 780 nM. Besides, the IC50 on HDAC1 was determined as 160 nM. The clinical score in assay [1] (3 mg/kg twice a day) was determined as 3.0; in assay [1] (10 mg/kg twice a day), 2.6; in assay [1] (30 mg/kg twice a day), 0.7. Further, the “arthritis symptoms improved by” value in assay [1] is recorded as 40 to 90%. Besides, the “efficacy compared with the control compound Tofacitinib” value in assay [1] is reported as “equivalent efficacy”.
`O=C(NO)c1ccc(CN(C(=O)N2CCOCC2)c2cccc(C(F)(F)F)c2)cc1` [Compound 374, N-(4-(hydroxycarbamoyl)benzyl)-N-(3-(trifluoromethyl)phenyl)morpholine-4-carboxamide]: the IC50 at HDAC 2 was determined as 4880 nM; on HDAC 3, 10300 nM; on HDAC 4 it was 16400 nM; at HDAC 8, 2070 nM; at HDAC 10, 16200 nM; on HDAC 11 it was 8420 nM. Further, on HDAC1, the IC50 was 2120 nM. Also, the clinical score in assay [1] (3 mg/kg twice a day) is listed as 2.5; in assay [1] (10 mg/kg twice a day), 0.8; in assay [1] (30 mg/kg twice a day), 1.3. For the same compound, in assay [1], the “arthritis symptoms improved by” value fell in the range of 70 to 90%. Also, the “efficacy compared with the control compound Tofacitinib” value in assay [1] was “equivalent efficacy”.
